Test results as given in ChEMBL document CHEMBL6109132, “Potent and Selective Human Constitutive Androstane Receptor Activator DL5055 Facilitates Cyclophosphamide-Based Chemotherapies” (J Med Chem, 2025).

What follows are molecules tested against T1, Nuclear receptor subfamily 1 group I member 3 (Homo sapiens, UniProt Q14994) (assay: Agonist activity at human CAR expressed in human HepG2 cells co-expressing CYP2B6 incubated for 23 hrs by Luciferase reporter gene assay). Details: not given; call rule not given here.
T1 sequence (Q14994 whole entry): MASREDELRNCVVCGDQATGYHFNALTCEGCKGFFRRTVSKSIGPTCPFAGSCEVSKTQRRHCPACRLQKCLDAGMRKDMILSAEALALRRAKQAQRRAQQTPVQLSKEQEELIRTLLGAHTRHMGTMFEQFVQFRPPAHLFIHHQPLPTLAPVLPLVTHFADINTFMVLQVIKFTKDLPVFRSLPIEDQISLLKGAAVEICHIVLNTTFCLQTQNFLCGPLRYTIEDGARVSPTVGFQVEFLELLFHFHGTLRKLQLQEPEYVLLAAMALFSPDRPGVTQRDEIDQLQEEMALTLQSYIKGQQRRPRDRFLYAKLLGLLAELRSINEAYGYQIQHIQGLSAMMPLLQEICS
Assay type: cell-based
c1ccc2c(c1)CC(NCc1c(-c3ccc4ccccc4c3)nc3occn13)C2 showed an EC50 of 670 nM. Work on O=C(N[C@H]1C[C@H](c2ccccc2)C1)c1c(-c2ccc3ccccc3c2)nc2occn12 yielded an EC50 of 1100 nM. Work on O=C(NCCc1ccc(Br)cc1)c1c(-c2ccc3ccccc3c2)nc2occn12 yielded an EC50 of 3500 nM. Work on O=C(NC1Cc2ccccc2C1)c1c(-c2ccc(F)cc2F)nc2occn12 yielded an EC50 of 440 nM. For O=C(NC1Cc2ccccc2C1)c1c(CCc2ccccc2)nc2occn12, the EC50 was > 100000 nM. In the case of O=C(NC1Cc2ccccc2C1)c1c(-c2ccc3c(c2)OCCO3)nc2occn12, the EC50 is reported as 750 nM. For O=C(Nc1c(-c2ccc3ccccc3c2)nc2occn12)C1Cc2ccccc2C1, the EC50 was 1200 nM. In the case of Cc1ccccc1CCNC(=O)c1c(-c2ccc3ccccc3c2)nc2occn12, the EC50 is reported as 830 nM. O=C(OC1Cc2ccccc2C1)c1c(-c2ccc3ccccc3c2)nc2occn12 showed an EC50 of 380 nM. O=C(NC1Cc2ccccc2C1)c1c(-c2ccc(F)c(C(F)(F)F)c2)nc2occn12 was tested, and the EC50 was 18000 nM. Molecule O=C(N[C@H]1C[C@@H](c2ccccc2)C1)c1c(-c2ccc3ccccc3c2)nc2occn12 has an EC50 of 330 nM. Work on O=C(NOCc1ccccc1)c1c(-c2ccc3ccccc3c2)nc2occn12 yielded an EC50 of 4400 nM. With O=C(NOCc1ccc(Cl)c(Cl)c1)c1c(-c2ccc3ccccc3c2)nc2occn12 the EC50 was 350 nM. Molecule O=C(NCC1Cc2ccccc2C1)c1c(-c2ccc(F)cc2F)nc2occn12 has an EC50 of 1900 nM. Molecule O=C(NCC1Cc2ccccc2C1)c1c(-c2ccc3ccccc3c2)nc2occn12 has an EC50 of 210 nM. Molecule O=C(NC1Cc2ccccc2C1)c1c(-c2ccc(Cl)cc2)nc2occn12 has an EC50 of 380 nM.

What follows are molecules tested against T2, Nuclear receptor subfamily 1 group I member 2 (Homo sapiens, UniProt O75469) (assay: Activation of human PXR expressed in human HepG2 cells assessed as increase in CYP3A4 mRNA level at >1 uM incubated for 24 hrs by luciferase based analysis). Details: hepg2, 24 h.
T2 sequence (O75469 whole entry): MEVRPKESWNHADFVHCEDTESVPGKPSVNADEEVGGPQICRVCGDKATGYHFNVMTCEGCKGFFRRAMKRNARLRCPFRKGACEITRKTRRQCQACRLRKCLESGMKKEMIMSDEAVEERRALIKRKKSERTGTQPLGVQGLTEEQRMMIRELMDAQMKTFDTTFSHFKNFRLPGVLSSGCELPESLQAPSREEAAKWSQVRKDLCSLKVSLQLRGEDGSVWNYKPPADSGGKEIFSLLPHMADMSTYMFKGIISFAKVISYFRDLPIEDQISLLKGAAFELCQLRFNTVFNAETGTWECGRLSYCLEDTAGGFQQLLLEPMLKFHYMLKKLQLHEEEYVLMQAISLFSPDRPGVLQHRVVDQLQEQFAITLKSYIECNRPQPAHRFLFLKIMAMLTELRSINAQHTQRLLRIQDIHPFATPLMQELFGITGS
Assay type: cell-based
c1ccc2c(c1)CC(NCc1c(-c3ccc4ccccc4c3)nc3occn13)C2 was tested, and the Activity was “Active”. Clc1ccc(-c2nc3sccn3c2/C=N/OCc2ccc(Cl)c(Cl)c2)cc1 was tested, and the Activity was “Active”.
